Columns and labels:
[1] = system: KB Cell; experiment: Inhibition of multiplication (growth) of KB cells, in vitro; type: cell-based, human; settings: concentration for 50% growth inhibition vs control; for IC50: Homo sapiens, 72 h, compound added Day 1, cells counted Day 4, read-out: Conc.(ED50)
Description: KB cells, carcinomatous cell tumors, were transferred to in vitro floatation incubator systems, and added respectively with compounds of Examples 1 to 33. The results of cultivation added with these compounds were compared with the results of the control which was not added with any compound.
Cell used: KB Cell (Originating from human mouth epidermal cancer) Culture medium: Eagles minimal essential medium (MEM) supplemented with 10% calf serum Cultivation: 37°C carbon dioxide gas incubator (5% CO₂)
Day 0: KB cells were diluted in the culture medium to adjust the KB cell density to 2 x 10⁴/ml. Three ml of the cell suspension was inoculated in each of 60 mm plastic dishes. Two dishes per standard dosage were used. Day 1: Test compound was added to the medium so that the final concentrations were set to 100, 30, 10, 3 and 1 µg/ml. Day 4: Cells were scraped off from the dish using trypsin, and the cell number was countered using a Corter counter.
In generally accordance with the stipulations set forth by the National Cancer Institute (NCI), U.S.A., the concentration of compound necessary for exerting 50% growth inhibition (ED₅₀) compared to the control was determined. A compound was judged as effective when ED₅₀ was less than 4 µg/ml.

[2] = system: P-388; experiment: Prolongation of life span in P-388 implanted mice; type: in vivo, CDF mouse; settings: for cure: cured mice per group of 6; for response vs control in vivo at 3.12 mg/kg: dosage 3.12 mg/kg; for response vs control in vivo at 6.25 mg/kg: dosage 6.25 mg/kg
Description: Animal used: CDF mouse (6 mice/group) Tumor: P-388 Number of implanted cells: 10⁶ cells/mouse Implanted site: i.p. Day of administration: Day 1 and Day 5 Dosage: LD₅₀ or 400 mg/kg/day at the maximum

[3] = P388, ip, T/C %, dosage 50 mg/kg, Day 1 and Day 5, P-388 10⁶ cells/mouse i.p., read-out: Ratio of Life Prolongation (%)
[4] = P388, ip, T/C %, dosage 100 mg/kg, Day 1 and Day 5, P-388 10⁶ cells/mouse i.p., read-out: Ratio of Life Prolongation (%)
[5] = P388, ip, T/C %, dosage 200 mg/kg, Day 1 and Day 5, P-388 10⁶ cells/mouse i.p., read-out: Ratio of Life Prolongation (%)
[6] = P388, ip, T/C %, dosage 400 mg/kg, Day 1 and Day 5, P-388 10⁶ cells/mouse i.p., read-out: Ratio of Life Prolongation (%)
[7] = P388, ip, T/C %, dosage 12.5 mg/kg, Day 1 and Day 5, P-388 10⁶ cells/mouse i.p., read-out: Ratio of Life Prolongation (%)
[8] = P388, ip, T/C %, dosage 25 mg/kg, Day 1 and Day 5, P-388 10⁶ cells/mouse i.p., read-out: Ratio of Life Prolongation (%)
[9] = P388, ip, T/C %, Day 1 and Day 5, P-388 10⁶ cells/mouse i.p., read-out: Ratio of Life Prolongation (%)

| Molecule | IC50 [1] [µg/mL] | response vs control in vivo at 50 mg/kg [2, 3] [%] | response vs control in vivo at 100 mg/kg [2, 4] [%] | response vs control in vivo at 200 mg/kg [2, 5] [%] | response vs control in vivo at 12.5 mg/kg [2, 7] [%] | response vs control in vivo at 25 mg/kg [2, 8] [%] | also measured |
| --- | --- | --- | --- | --- | --- | --- | --- |
| 6-(4-methanesulfonamide-anilino)-indeno[3,2-b]quinoline [Compound 5] | – | – | – | – | – | – | Conc.(ED50) ([1]; compound added Day 1, cells counted Day 4, 4320 min): < 0.3 µg/mL; Ratio of Life Prolongation (%) ([2]; T/C %, dosage 25 mg/kg, Day 1 and Day 5, P-388 10⁶ cells/mouse i.p.): 140%; Ratio of Life Prolongation (%) ([2]; T/C %, dosage 50 mg/kg, Day 1 and Day 5, P-388 10⁶ cells/mouse i.p.): 135%; Ratio of Life Prolongation (%) ([2]; T/C %, dosage 100 mg/kg, Day 1 and Day 5, P-388 10⁶ cells/mouse i.p.): 163%; Ratio of Life Prolongation (%) ([2]; T/C %, dosage 200 mg/kg, Day 1 and Day 5, P-388 10⁶ cells/mouse i.p.): 172%; Ratio of Life Prolongation (%) ([2]; T/C %, dosage 400 mg/kg, Day 1 and Day 5, P-388 10⁶ cells/mouse i.p.): 165% |
| COc1cc(NS(C)(=O)=O)ccc1Nc1c2c(nc3c(C)cccc13)-c1c(C)cccc1C2 [Compound 1, 6-4-(methanesulfonamide-2-methoxyanilino)-1,10-dimethylindeno[3,2-b]quinoline] | < 0.3 | 210 | 290 | 240 | – | – | cure ([2]; dosage 100 mg/kg): 1/6; cure ([2]; dosage 200 mg/kg): 1/6 |
| COc1cc(NS(C)(=O)=O)ccc1Nc1c2c(nc3c(C)cccc13)-c1ccccc1C2 [Compound 2] | < 0.3 | – | 257 | 99 | – | – | response vs control in vivo at 400 mg/kg [2, 6]: 97%; cure ([2]; dosage 100 mg/kg): 1/6 |
| COC(=O)Nc1ccc(Nc2c3c(nc4ccccc24)-c2ccccc2C3)c(OC)c1 [Compound 3] | < 0.3 | – | 151 | 97 | – | – | response vs control in vivo at 400 mg/kg [2, 6]: 0% |
| COc1cc(N)ccc1Nc1c2c(nc3ccccc13)-c1ccccc1C2 [Compound 4] | < 0.3 | 210 | – | – | 134 | 168 | – |
| CN(C)c1cc(NS(C)(=O)=O)ccc1Nc1c2c(nc3ccccc13)-c1ccccc1C2 [Compound 6, 6-(4-methanesulfonamide-2-dimethylaminoanilino)-indeno[3,2-b]quinoline] | < 0.3 | – | 169 | 247 | – | – | response vs control in vivo at 400 mg/kg [2, 6]: 148%; cure ([2]; dosage 200 mg/kg): 2/6 |
| COc1cc(NCS(=O)O)ccc1Nc1c2c(nc3ccccc13)-c1ccccc1C2 [Compound 7] | < 0.3 | 111 | 108 | 111 | – | – | – |
| COc1cc(NCC(=O)O)ccc1Nc1c2c(nc3ccccc13)-c1ccccc1C2 [Compound 8] | < 0.3 | – | 175 | 178 | – | – | response vs control in vivo at 400 mg/kg [2, 6]: 155% |
| COc1cc(NS(C)(=O)=O)ccc1Nc1c2cccc(C)c2nc2c1[nH]c1ccccc12 [Compound 9] | < 0.3 | 305 | – | – | 198 | 235 | response vs control in vivo at 1.56 mg/kg ([2]; P388, ip, T/C %, dosage 1.56 mg/kg, Day 1 and Day 5, P-388 10⁶ cells/mouse i.p., read-out: Ratio of Life Prolongation (%)): 131%; response vs control in vivo at 3.12 mg/kg [2, 9]: 165%; response vs control in vivo at 6.25 mg/kg [2, 9]: 168%; cure ([2]; dosage 25 mg/kg): 1/6; cure ([2]; dosage 50 mg/kg): 4/6 |
| COc1cc(NS(C)(=O)=O)ccc1Nc1c2cccc(C)c2nc2c1[nH]c1cccc(C)c12 [Compound 10, 6-(4-methanesulfonamide-2-methoxyanilino)-1,10-dimethylindolo[3,2-b]quinoline] | < 0.3 | 223 | 260 | – | 165 | 203 | response vs control in vivo at 3.12 mg/kg [2, 9]: 109%; response vs control in vivo at 6.25 mg/kg [2, 9]: 145%; cure ([2]; dosage 100 mg/kg): 1/6 |
| COc1cc(NS(C)(=O)=O)ccc1Nc1c2cccc(C)c2nc2c1[nH]c1cc(C)ccc12 [Compound 11, 6-(4-methanesulfonamide-2-methoxyanilino)-3,10-dimethylindolo[3,2-b]quinoline] | < 0.3 | 315 | – | – | 315 | 294 | cure ([2]; dosage 12.5 mg/kg): 1/6; cure ([2]; dosage 25 mg/kg): 2/6; cure ([2]; dosage 50 mg/kg): 1/6 |
| COc1cc(NS(C)(=O)=O)ccc1Nc1c2ccccc2nc2c1[nH]c1ccc(Cl)cc12 [Compound 12] | < 0.3 | 315 | – | – | 231 | 242 | cure ([2]; dosage 25 mg/kg): 1/6; cure ([2]; dosage 50 mg/kg): 1/6 |

Now from value to molecule, other results behind:

| IC50 [1] [µg/mL] | Molecule | response vs control in vivo at 50 mg/kg [2, 3] [%] | response vs control in vivo at 100 mg/kg [2, 4] [%] | response vs control in vivo at 200 mg/kg [2, 5] [%] | response vs control in vivo at 12.5 mg/kg [2, 7] [%] | response vs control in vivo at 25 mg/kg [2, 8] [%] | also measured |
| --- | --- | --- | --- | --- | --- | --- | --- |
| < 0.3 | COc1cc(NS(C)(=O)=O)ccc1Nc1c2ccccc2nc2c1[nH]c1ccc(C)cc12 [Compound 13, 6-(4-methanesulfonamide-2-methoxyanilino)-2-methylindolo[3,2-b]quinoline] | 115 | – | – | 189 | 192 | – |
| < 0.3 | COC(=O)Nc1ccc(Nc2c3ccccc3nc3c2[nH]c2ccccc23)c(OC)c1 [Compound 14] | 282 | 266 | 221 | – | – | cure ([2]; dosage 100 mg/kg): 1/6 |
| < 0.3 | COc1cc(NC(C)=O)ccc1Nc1c2ccccc2nc2c1[nH]c1ccccc12 [Compound 15] | 263 | 240 | 76 | – | – | cure ([2]; dosage 100 mg/kg): 1/6 |
| < 0.3 | COc1cc(NS(C)(=O)=O)ccc1Nc1c2ccccc2nc2c1[nH]c1cccc(C)c12 [Compound 16, 6-(4-methanesulfonamide-2-methoxyanilino)-1-methylindolo[3,2-b]quinoline] | 269 | – | – | 240 | 288 | cure ([2]; dosage 12.5 mg/kg): 2/6; cure ([2]; dosage 25 mg/kg): 2/6 |
| < 0.3 | COc1cc(NS(C)(=O)=O)ccc1Nc1c2ccccc2nc2c1[nH]c1cc(C)ccc12 [Compound 17, 6-(4-methanesulfoneamide-2-methoxyanilino)-3-methylindolo[3,2-b]quinoline] | 75 | – | – | 153 | 77 | – |
| < 0.3 | COc1cc(NS(C)(=O)=O)ccc1Nc1c2ccccc2nc2c1[nH]c1ccc([N+](=O)[O-])cc12 [Compound 18, 6-(4-methanesulfonamide-2-methoxyanilino)-2-nitroindolo[3,2-b]quinoline] | – | – | – | – | – | cure ([2]; dosage 12.5 mg/kg): 1/6 |
| < 0.3 | COc1cc(NS(C)(=O)=O)ccc1Nc1c2ccccc2nc2c1[nH]c1ccc(F)cc12 [Compound 19, 2-fluoro-6-(4-methanesulfonamide-2-methoxyanilino)indolo[3,2-b]quinoline] | – | – | – | 313 | 252 | cure ([2]; dosage 12.5 mg/kg): 3/6; cure ([2]; dosage 25 mg/kg): 2/6 |
| < 0.3 | COc1cc(O)ccc1Nc1c2ccccc2nc2c1[nH]c1ccccc12 [Compound 20] | – | – | – | 179 | 131 | cure ([2]; dosage 25 mg/kg): 1/6 |
| < 0.3 | COc1cc(OC(C)=O)ccc1Nc1c2ccccc2nc2c1[nH]c1ccccc12 [Compound 21] | 185 | – | – | – | 179 | cure ([2]; dosage 50 mg/kg): 1/6 |
| < 0.3 | COc1cc(NS(C)(=O)=O)ccc1Nc1c2ccccc2nc2c1[nH]c1ccc(N)cc12 [Compound 22, 2-amino-6-(4-methanesulfonamide-2-methoxyanilino)indolo[3,2-b]quinoline] | – | – | – | 171 | 200 | – |

From patent EP0376166A1, “Condensed quinoline system compound and process of preparation thereof” (MECT CORPORATION, priority 1988, dated 1990)
